Reference: publication PMC5218480 (PLoS ONE, 2017)

Test system: MV-4-11 cells
Assay: Gene expression microarray analysis (Affymetrix PrimeView) and GSEA
Format: cell-based, human
Design: RFU PODN (11730768_x_at) / Fold change /veh PODN (11730768_x_at) / RFU LINC00158 (11744669_a_at) / Fold change /veh LINC00158 (11744669_a_at) / RFU DUSP10 (11751237_a_at) / Fold change /veh DUSP10 (11751237_a_at) / RFU ID3 (11757404_x_at) / Fold change /veh ID3 (11757404_x_at) / RFU PLEKHG5 (11737974_s_at) / Fold change /veh PLEKHG5 (11737974_s_at) / RFU LRRC4B (11730491_at) / Fold change /veh LRRC4B (11730491_at) / RFU GIMAP4 (11747438_a_at) / Fold change /veh GIMAP4 (11747438_a_at) / RFU KRT8 (11758183_x_at) / Fold change /veh KRT8 (11758183_x_at) / RFU CNN1 (11734310_a_at) / Fold change /veh CNN1 (11734310_a_at) / RFU VPS37D (11726825_at) / Fold change /veh VPS37D (11726825_at) / RFU C10orf10 (11716522_x_at) / Fold change /veh C10orf10 (11716522_x_at) / RFU KIR2DL2 /// KIR2DL4 /// KIR2DL5A /// KIR2DL5B /// KIR2DS1 /// KIR2DS2 /// KIR2DS3 /// KIR2DS4 /// KIR3DL3 /// KIR3DL3 /// KIR3DS1 (11738374_at) / Fold change /veh KIR2DL2 /// KIR2DL4 /// KIR2DL5A /// KIR2DL5B /// KIR2DS1 /// KIR2DS2 /// KIR2DS3 /// KIR2DS4 /// KIR3DL3 /// KIR3DL3 /// KIR3DS1 (11738374_at) / RFU C1QL1 (11718748_at) / Fold change /veh C1QL1 (11718748_at) / RFU TMPRSS4 (11747572_a_at) / Fold change /veh TMPRSS4 (11747572_a_at) / RFU HAMP (11756126_x_at) / Fold change /veh HAMP (11756126_x_at) / RFU RNFT2 (11725882_a_at) / Fold change /veh RNFT2 (11725882_a_at) / RFU NR4A2 (11747474_a_at) / Fold change /veh NR4A2 (11747474_a_at) / RFU ABCC12 (11746883_a_at) / Fold change /veh ABCC12 (11746883_a_at) / RFU TMEM136 (11760407_x_at) / Fold change /veh TMEM136 (11760407_x_at) / RFU CLDN22 /// WWC2 (11732394_at) / Fold change /veh CLDN22 /// WWC2 (11732394_at) / RFU HLA-DPB1 (11760878_x_at) / Fold change /veh HLA-DPB1 (11760878_x_at) / RFU SPINT1 (11716480_a_at) / Fold change /veh SPINT1 (11716480_a_at) / RFU GAP43 (11754022_s_at) / Fold change /veh GAP43 (11754022_s_at) / RFU A4GNT (11735810_at) / Fold change /veh A4GNT (11735810_at) / RFU PRB3 (11715151_x_at) / Fold change /veh PRB3 (11715151_x_at) / RFU TUBB4B (11761932_at) / Fold change /veh TUBB4B (11761932_at) / RFU CAPN14 (11732068_a_at) / Fold change /veh CAPN14 (11732068_a_at) / RFU TMCC2 (11721928_a_at) / Fold change /veh TMCC2 (11721928_a_at) / RFU IRGQ (11745062_a_at) / Fold change /veh IRGQ (11745062_a_at) / RFU FAM174B (11720279_a_at) / Fold change /veh FAM174B (11720279_a_at) / RFU TMPRSS4 (11748680_a_at) / Fold change /veh TMPRSS4 (11748680_a_at) / RFU FAM212B (11763350_a_at) / Fold change /veh FAM212B (11763350_a_at) / RFU PLEKHG5 (11743358_a_at) / Fold change /veh PLEKHG5 (11743358_a_at) / RFU ZSCAN30 (11745921_a_at) / Fold change /veh ZSCAN30 (11745921_a_at) / RFU CMKLR1 (11741424_a_at) / Fold change /veh CMKLR1 (11741424_a_at) / RFU LOC101060620 /// MAPK8IP1 (11723275_at) / Fold change /veh LOC101060620 /// MAPK8IP1 (11723275_at) / RFU SPTSSB (11747773_x_at) / Fold change /veh SPTSSB (11747773_x_at) / RFU PRSS12 (11739890_at) / Fold change /veh PRSS12 (11739890_at) / RFU BIN1 (11741810_x_at) / Fold change /veh BIN1 (11741810_x_at) / RFU WNT11 (11732464_a_at) / Fold change /veh WNT11 (11732464_a_at) / RFU C10orf10 (11716521_a_at) / Fold change /veh C10orf10 (11716521_a_at) / RFU C5orf56 (11738089_at) / Fold change /veh C5orf56 (11738089_at) / RFU CYB561 (11721691_x_at) / Fold change /veh CYB561 (11721691_x_at) / RFU ANKRD19P (11752326_a_at) / Fold change /veh ANKRD19P (11752326_a_at) / RFU OR2T12 /// OR2T33 /// OR2T8 (11738714_s_at) / Fold change /veh OR2T12 /// OR2T33 /// OR2T8 (11738714_s_at) / RFU VCAN (11748164_a_at) / Fold change /veh VCAN (11748164_a_at) / RFU JSRP1 (11732532_at) / Fold change /veh JSRP1 (11732532_at) / RFU KRTAP10-11 (11738290_x_at) / Fold change /veh KRTAP10-11 (11738290_x_at) / RFU MYO3A (11730013_a_at) / Fold change /veh MYO3A (11730013_a_at) / RFU EBF3 (11725865_a_at) / Fold change /veh EBF3 (11725865_a_at) / RFU CAMK2N1 (11719241_x_at) / Fold change /veh CAMK2N1 (11719241_x_at) / RFU C5orf56 (11738088_a_at) / Fold change /veh C5orf56 (11738088_a_at) / RFU OLFML3 (11715873_a_at) / Fold change /veh OLFML3 (11715873_a_at) / RFU LOC100653217 /// NTM (11731650_a_at) / Fold change /veh LOC100653217 /// NTM (11731650_a_at) / RFU MAPK11 (11762145_a_at) / Fold change /veh MAPK11 (11762145_a_at) / RFU FIZ1 (11724087_x_at) / Fold change /veh FIZ1 (11724087_x_at) / RFU OASL (11726364_x_at) / Fold change /veh OASL (11726364_x_at) / RFU SOX15 (11748057_x_at) / Fold change /veh SOX15 (11748057_x_at) / RFU CD79A (11719716_a_at) / Fold change /veh CD79A (11719716_a_at) / RFU HIST1H1D (11736915_at) / Fold change /veh HIST1H1D (11736915_at) / RFU CASKIN2 (11723855_a_at) / Fold change /veh CASKIN2 (11723855_a_at) / RFU LOC730098 (11760151_x_at) / Fold change /veh LOC730098 (11760151_x_at) / RFU OR4N2 (11742367_at) / Fold change /veh OR4N2 (11742367_at) / RFU PRRT2 (11749266_a_at) / Fold change /veh PRRT2 (11749266_a_at) / RFU SNX32 (11753110_a_at) / Fold change /veh SNX32 (11753110_a_at) / RFU CDHR5 (11726645_a_at) / Fold change /veh CDHR5 (11726645_a_at) / RFU RCAN1 (11760418_a_at) / Fold change /veh RCAN1 (11760418_a_at) / RFU FAM167A (11723789_a_at) / Fold change /veh FAM167A (11723789_a_at) / RFU FAM26E (11764081_at) / Fold change /veh FAM26E (11764081_at) / RFU ISYNA1 (11749810_s_at) / Fold change /veh ISYNA1 (11749810_s_at) / RFU ACY1 (11761880_at) / Fold change /veh ACY1 (11761880_at) / RFU 11764098_at / Fold change /veh 11764098_at / RFU SAMD14 (11745864_x_at) / Fold change /veh SAMD14 (11745864_x_at) / RFU NPB (11741838_a_at) / Fold change /veh NPB (11741838_a_at) / RFU TMPRSS6 (11731388_a_at) / Fold change /veh TMPRSS6 (11731388_a_at) / RFU KRTAP10-2 (11738614_at) / Fold change /veh KRTAP10-2 (11738614_at) / RFU ARHGAP8 /// PRR5-ARHGAP8 (11727945_x_at) / Fold change /veh ARHGAP8 /// PRR5-ARHGAP8 (11727945_x_at) / RFU KRTAP5-7 /// NADSYN1 (11734609_at) / Fold change /veh KRTAP5-7 /// NADSYN1 (11734609_at) / RFU RASL12 (11751679_a_at) / Fold change /veh RASL12 (11751679_a_at) / RFU CDKN2B (11736163_a_at) / Fold change /veh CDKN2B (11736163_a_at) / RFU PRF1 (11729649_at) / Fold change /veh PRF1 (11729649_at) / RFU, ZNF638 /// ZNF638-IT1 / Fold change vs veh, ZNF638 /// ZNF638-IT1 / RFU, PANK3 / Fold change vs veh, PANK3 / RFU, SH3YL1 / Fold change vs veh, SH3YL1 / RFU, ZEB2 / Fold change vs veh, ZEB2 / RFU, NRIP1 / Fold change vs veh, NRIP1 / RFU, PTTG1IP / Fold change vs veh, PTTG1IP / RFU, CAPN2 / Fold change vs veh, CAPN2 / RFU, MED14 / Fold change vs veh, MED14 / RFU, SNORA58 / Fold change vs veh, SNORA58 / RFU, C1orf63 / Fold change vs veh, C1orf63 / RFU, LRRFIP1 / Fold change vs veh, LRRFIP1 / RFU, NDUFAF7 / Fold change vs veh, NDUFAF7 / RFU, SLC12A2 / Fold change vs veh, SLC12A2 / RFU, IBTK / Fold change vs veh, IBTK / RFU, ESF1 / Fold change vs veh, ESF1 / Fold change vs veh, TMEM50B / RFU, TAOK1 / Fold change vs veh, TAOK1 / RFU, ACBD3 / Fold change vs veh, ACBD3 / RFU, TMA16 / Fold change vs veh, TMA16 / RFU, RWDD3 / Fold change vs veh, RWDD3 / RFU, BCAT1 / Fold change vs veh, BCAT1 / RFU, EDEM3 / Fold change vs veh, EDEM3 / RFU, TMEM33 / Fold change vs veh, TMEM33 / RFU, WDR75 / Fold change vs veh, WDR75 / RFU, AHCTF1 / Fold change vs veh, AHCTF1 / RFU, TFRC / Fold change vs veh, TFRC / RFU, ZDHHC17 / Fold change vs veh, ZDHHC17 / RFU, NOM1 / Fold change vs veh, NOM1 / RFU, ARL8B / Fold change vs veh, ARL8B / RFU, ZBTB11 / Fold change vs veh, ZBTB11 / RFU, TAMM41 / Fold change vs veh, TAMM41 / RFU, KIAA1704 /// LOC100996395 / Fold change vs veh, KIAA1704 /// LOC100996395 / RFU, ING1 / Fold change vs veh, ING1 / RFU, TRMT61B / Fold change vs veh, TRMT61B / RFU, FUBP3 / Fold change vs veh, FUBP3 / RFU, TP53 / Fold change vs veh, TP53 / RFU, TNKS2 / Fold change vs veh, TNKS2 / RFU, ZFP14 / Fold change vs veh, ZFP14 / RFU, ACTR2 / Fold change vs veh, ACTR2 / RFU, PPP3R1 / Fold change vs veh, PPP3R1 / RFU, PIK3R1 / Fold change vs veh, PIK3R1 / RFU, HNRNPA1 / Fold change vs veh, HNRNPA1 / RFU, RNF170 / Fold change vs veh, RNF170 / RFU, ZNF28 / Fold change vs veh, ZNF28 / RFU, RNGTT / Fold change vs veh, RNGTT / RFU, OGT / Fold change vs veh, OGT / RFU, BRD1 / Fold change vs veh, BRD1 / RFU, MARS / Fold change vs veh, MARS / RFU, ZNF655 / Fold change vs veh, ZNF655 / RFU, FAHD1 / Fold change vs veh, FAHD1 / RFU, BDP1 / Fold change vs veh, BDP1 / RFU, LRRCC1 / Fold change vs veh, LRRCC1 / RFU, ARID1A / Fold change vs veh, ARID1A / RFU, ZNF146 / Fold change vs veh, ZNF146 / RFU, ZNF330 / Fold change vs veh, ZNF330 / RFU, GPN3 / Fold change vs veh, GPN3 / RFU, C9orf123 / Fold change vs veh, C9orf123 / RFU, N4BP2L2 / Fold change vs veh, N4BP2L2 / RFU, ARFIP1 / Fold change vs veh, ARFIP1 / RFU, FAM179B / Fold change vs veh, FAM179B / RFU, BCL10 / Fold change vs veh, BCL10 / RFU, UHRF1BP1L / Fold change vs veh, UHRF1BP1L / RFU, BET1 / Fold change vs veh, BET1 / RFU, CNOT2 / Fold change vs veh, CNOT2 / RFU, ZNF268 / Fold change vs veh, ZNF268 / Fold change vs veh, ZNF507 / RFU, DGCR2 / Fold change vs veh, DGCR2 / RFU, WDSUB1 / Fold change vs veh, WDSUB1 / Fold change vs veh, HSP90B1 /// MIR3652 / RFU, ADSS / Fold change vs veh, ADSS / RFU, GK / Fold change vs veh, GK / RFU, ZNF148 / Fold change vs veh, ZNF148 / RFU, TAF9 / Fold change vs veh, TAF9 / RFU, SLC1A5 / Fold change vs veh, SLC1A5 / RFU, SLMO2 / Fold change vs veh, SLMO2 / RFU, ABCC4 / Fold change vs veh, ABCC4 / RFU, LOC101060439 /// RAP1B / Fold change vs veh, LOC101060439 /// RAP1B / RFU, RFX7 / Fold change vs veh, RFX7 / RFU, GTPBP10 / Fold change vs veh, GTPBP10 / RFU, CNEP1R1 / Fold change vs veh, CNEP1R1 / RFU, BIVM-ERCC5 /// ERCC5 / Fold change vs veh, BIVM-ERCC5 /// ERCC5 / RFU, ILF3 / Fold change vs veh, ILF3 / RFU 11762660_at / Fold change /veh 11762660_at / RFU VCAN (11757783_s_at) / Fold change /veh VCAN (11757783_s_at) / RFU DDX43 (11728927_at) / Fold change /veh DDX43 (11728927_at) / RFU KRT8 (11758188_x_at) / Fold change /veh KRT8 (11758188_x_at) / RFU NKD1 (11759106_at) / Fold change /veh NKD1 (11759106_at) / RFU SRD5A1 (11742802_a_at) / Fold change /veh SRD5A1 (11742802_a_at) / RFU TPSAB1 /// TPSB2 (11721975_s_at) / Fold change /veh TPSAB1 /// TPSB2 (11721975_s_at) / RFU GSTM3 (11746129_a_at) / Fold change /veh GSTM3 (11746129_a_at) / RFU IL23R (11737362_x_at) / Fold change /veh IL23R (11737362_x_at) / RFU TMEM51 (11727254_a_at) / Fold change /veh TMEM51 (11727254_a_at) / RFU PIWIL2 (11732686_x_at) / Fold change /veh PIWIL2 (11732686_x_at) / RFU ORM1 (11744905_x_at) / Fold change /veh ORM1 (11744905_x_at) / RFU CCDC152 (11743942_at) / Fold change /veh CCDC152 (11743942_at) / RFU ECM1 (11717891_a_at) / Fold change /veh ECM1 (11717891_a_at) / RFU IL23R (11748794_a_at) / Fold change /veh IL23R (11748794_a_at) / RFU TNFAIP8L3 (11732012_x_at) / Fold change /veh TNFAIP8L3 (11732012_x_at) / RFU MBOAT4 (11741988_at) / Fold change /veh MBOAT4 (11741988_at) / RFU 11764193_at / Fold change /veh 11764193_at / RFU TMEM53 (11763286_at) / Fold change /veh TMEM53 (11763286_at) / RFU MAGEB2 (11727129_at) / Fold change /veh MAGEB2 (11727129_at) / RFU TMEM200A (11744735_a_at) / Fold change /veh TMEM200A (11744735_a_at) / RFU CCDC152 (11751479_a_at) / Fold change /veh CCDC152 (11751479_a_at) / RFU FAM211A (11726209_a_at) / Fold change /veh FAM211A (11726209_a_at) / RFU RGS16 (11746705_a_at) / Fold change /veh RGS16 (11746705_a_at) / RFU VCAN (11755009_s_at) / Fold change /veh VCAN (11755009_s_at) / RFU RHOB (11743442_s_at) / Fold change /veh RHOB (11743442_s_at) / RFU RGS16 (11720943_a_at) / Fold change /veh RGS16 (11720943_a_at) / RFU RGS16 (11720944_at) / Fold change /veh RGS16 (11720944_at) / RFU, VPS4B / Fold change vs veh, VPS4B / RFU, CREB1 / Fold change vs veh, CREB1 / RFU, DNAJC13 / Fold change vs veh, DNAJC13 / RFU, GNAQ / Fold change vs veh, GNAQ / RFU, CDK5R1 / Fold change vs veh, CDK5R1 / RFU, ZRANB3 / Fold change vs veh, ZRANB3 / RFU, CUL4A / Fold change vs veh, CUL4A / RFU, CCNY / Fold change vs veh, CCNY / RFU, UFL1 / Fold change vs veh, UFL1 / RFU, COG3 / Fold change vs veh, COG3 / RFU, DIAPH2 / Fold change vs veh, DIAPH2 / RFU, SKA2 / Fold change vs veh, SKA2 / RFU, AFF3 / Fold change vs veh, AFF3 / RFU, LMF1 / Fold change vs veh, LMF1 / RFU, IPO11 / Fold change vs veh, IPO11 / RFU, DFFB / Fold change vs veh, DFFB / RFU, FOXP1 / Fold change vs veh, FOXP1 / RFU, CARD8 / Fold change vs veh, CARD8 / RFU, STRN3 / Fold change vs veh, STRN3 / RFU, ADK / Fold change vs veh, ADK / RFU, RASSF2 / Fold change vs veh, RASSF2 / RFU, WIPF1 / Fold change vs veh, WIPF1 / RFU, LARP1B / Fold change vs veh, LARP1B / RFU, RASA1 / Fold change vs veh, RASA1 / RFU, RB1 / Fold change vs veh, RB1 / RFU, PPFIA1 / Fold change vs veh, PPFIA1 / RFU, MAT2A / Fold change vs veh, MAT2A / RFU, CCT5 / Fold change vs veh, CCT5 / RFU, WDR92 / Fold change vs veh, WDR92 / RFU, CUX1 / Fold change vs veh, CUX1 / RFU, TTC7A / Fold change vs veh, TTC7A / RFU, TMEM135 / Fold change vs veh, TMEM135 / RFU, DEPTOR / Fold change vs veh, DEPTOR / RFU, CPM / Fold change vs veh, CPM / RFU, DNAJB6 / Fold change vs veh, DNAJB6 / RFU, CACNA2D3 / Fold change vs veh, CACNA2D3 / RFU, DTX4 / Fold change vs veh, DTX4 / RFU, TFCP2 / Fold change vs veh, TFCP2 / RFU, GMCL1 /// GMCL1P1 / Fold change vs veh, GMCL1 /// GMCL1P1 / RFU, AEBP2 / Fold change vs veh, AEBP2 / RFU, SNHG1 /// SNORD22 /// SNORD25 /// SNORD26 /// SNORD27 /// SNORD28 /// SNORD29 /// SNORD31 / Fold change vs veh, SNHG1 /// SNORD22 /// SNORD25 /// SNORD26 /// SNORD27 /// SNORD28 /// SNORD29 /// SNORD31 / Fold change (Aza/veh), C12orf56 (ProbeSet 11735607_a_at) / Fold change (ACY-1035/veh), C12orf56 (ProbeSet 11735607_a_at) / Fold change (Aza/veh), FGFR1OP (ProbeSet 11751329_s_at) / Fold change (ACY-1035/veh), FGFR1OP (ProbeSet 11751329_s_at) / Fold change (Aza/veh), VPS36 (ProbeSet 11739960_a_at) / Fold change (ACY-1035/veh), VPS36 (ProbeSet 11739960_a_at) / RFU SYPL1 (11715823_x_at) / Fold change /veh SYPL1 (11715823_x_at) / RFU IGFBP7 (11715501_s_at) / Fold change /veh IGFBP7 (11715501_s_at) / RFU REEP3 (11722064_at) / Fold change /veh REEP3 (11722064_at) / RFU IGLL1 (11728026_x_at) / Fold change /veh IGLL1 (11728026_x_at): dose or concentration left out as unconfirmed
Settings: ProbeSet 11732370_a_at; LIST D

## Nc1ncn([C@@H]2O[C@H](CO)[C@@H](O)[C@H]2O)c(=O)n1 [azacitidine]
  RFU, CUX1: 199.77 RFU
